Patent US8138334B2, “Substituted oxa-diaza-spiro-[5.5]-undecanone derivatives and their use as neurokinin antagonists” (Janssen Pharmaceutica N.V., priority 2005, dated 2012)

Columns and labels:
NK2 = target: T1, NK2 (Homo sapiens, UniProt P21452); assay: Signal transduction (ST), intracellular Ca++ FLIPR, NK2; type: cell-based; details: antagonist, read-out: NK2 pIC50 (converted)
T1 sequence (P21452 1-398): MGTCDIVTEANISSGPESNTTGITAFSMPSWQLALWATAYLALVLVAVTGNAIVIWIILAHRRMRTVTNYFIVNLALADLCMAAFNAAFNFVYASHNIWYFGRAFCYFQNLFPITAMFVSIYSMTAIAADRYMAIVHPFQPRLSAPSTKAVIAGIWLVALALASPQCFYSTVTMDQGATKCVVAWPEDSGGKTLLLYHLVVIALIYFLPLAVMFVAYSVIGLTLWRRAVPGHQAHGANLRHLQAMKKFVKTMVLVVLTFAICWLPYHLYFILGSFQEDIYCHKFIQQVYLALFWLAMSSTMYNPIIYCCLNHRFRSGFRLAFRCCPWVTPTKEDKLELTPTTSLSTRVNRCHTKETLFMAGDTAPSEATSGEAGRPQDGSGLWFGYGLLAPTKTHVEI

NK1 = NK1 (Homo sapiens, UniProt P25103); assay: Signal transduction (ST), intracellular Ca++ FLIPR, NK1; type: cell-based; details: antagonist, read-out: NK1 pIC50 (converted)
NK1, sequence (P25103 whole entry): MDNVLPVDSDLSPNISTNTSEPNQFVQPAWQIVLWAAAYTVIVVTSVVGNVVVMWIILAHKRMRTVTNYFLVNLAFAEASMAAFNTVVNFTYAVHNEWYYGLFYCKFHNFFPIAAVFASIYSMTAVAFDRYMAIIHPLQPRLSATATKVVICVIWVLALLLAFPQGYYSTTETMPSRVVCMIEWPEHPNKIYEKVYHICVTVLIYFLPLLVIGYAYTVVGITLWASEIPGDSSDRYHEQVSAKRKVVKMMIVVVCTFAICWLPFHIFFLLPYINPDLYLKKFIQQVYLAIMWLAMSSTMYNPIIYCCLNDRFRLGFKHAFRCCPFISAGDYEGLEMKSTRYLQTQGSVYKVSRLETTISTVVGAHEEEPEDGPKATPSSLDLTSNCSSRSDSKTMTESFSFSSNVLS
Description: This test evaluates in vitro functional NK1 antagonistic activity. For the measurements of intracellular Ca^++ concentrations the cells were grown on 96-well (black wall/transparent bottom) plates from Costar for 2 days until they reached confluence. The cells were loaded with 2 μM Fluo3 in DMEM containing 0.1% BSA and 2.5 mM probenecid for 1 h at 37° C. They were washed 3× with a Krebs buffer (140 mM NaCl, 1 mM MgCl2×6H2O, 5 mM KCl, 10 mM glucose, 5 mM HEPES; 1.25 mM CaCl2; pH 7.4) containing 2.5 mM probenecid and 0.1% BSA (Ca^++-buffer). The cells were preincubated with a concentration range of antagonists for 20 min at RT and Ca^++-signals after addition of the agonists were measured in a Fluorescence Image Plate Reader (FLIPR from Molecular Devices, Crawley, England). The peak of the Ca^++-transient was considered as the relevant signal and the mean values of corresponding wells were analysed as described below.
The sigmoidal dose response curves were analysed by computerised curve-fitting, using the GraphPad Program. The EC50-value of a compound is the effective dose showing 50% of maximal effect. For mean curves the response to the agonist with the highest potency was normalised to 100%. For antagonist responses the IC50-value was calculated using non-linear regression. […]

NK3 = target: T2, NK3 (Homo sapiens, UniProt P29371); assay: Signal transduction (ST), intracellular Ca++ FLIPR, NK3; type: cell-based; details: antagonist, read-out: NK3 pIC50 (converted)
T2 sequence (P29371 1-465): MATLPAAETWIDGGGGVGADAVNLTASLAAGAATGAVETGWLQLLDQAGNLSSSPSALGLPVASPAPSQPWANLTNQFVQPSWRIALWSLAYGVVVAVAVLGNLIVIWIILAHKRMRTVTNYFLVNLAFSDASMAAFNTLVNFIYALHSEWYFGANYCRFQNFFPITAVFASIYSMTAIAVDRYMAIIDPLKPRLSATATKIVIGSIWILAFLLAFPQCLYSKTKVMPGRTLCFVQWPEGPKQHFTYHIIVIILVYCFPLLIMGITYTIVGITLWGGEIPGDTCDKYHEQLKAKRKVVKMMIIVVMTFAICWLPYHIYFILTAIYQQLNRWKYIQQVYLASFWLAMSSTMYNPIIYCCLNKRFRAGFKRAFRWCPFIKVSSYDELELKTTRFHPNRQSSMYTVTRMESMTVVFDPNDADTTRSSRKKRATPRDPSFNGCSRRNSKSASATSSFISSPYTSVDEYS

Row | IC50 (NK2) | IC50 (NK1) | IC50 (NK3) | melting point | Structure (SMILES)
1 | > 10000 nM | 251 nM |  |  | CC(C)(C)CN1CCC2(CCN(C3CCN(C(=O)c4cc(C(F)(F)F)cc(C(F)(F)F)c4)C(Cc4ccccc4)C3)CC2)OC1=O (single isomer, unassigned) [Compound 2.1]
2 | 2000 nM | 63.1 nM | 3980 nM |  | CC(C)(C)CN1CCC2(CCN(C3CCN(C(=O)c4cc(C(F)(F)F)cc(C(F)(F)F)c4)C(Cc4ccccc4)C3)CC2)OC1=O (single isomer, unassigned) [Compound 2.2]
3 | > 10000 nM | 398 nM | 5010 nM |  | CCC(CC)CN1CCC2(CCN(C3CCN(C(=O)c4cc(C(F)(F)F)cc(C(F)(F)F)c4)C(Cc4ccccc4)C3)CC2)OC1=O (single isomer, unassigned) [Compound 2.3]
4 | 5010 nM | 79.4 nM | 7940 nM |  | CCC(CC)CN1CCC2(CCN(C3CCN(C(=O)c4cc(C(F)(F)F)cc(C(F)(F)F)c4)C(Cc4ccccc4)C3)CC2)OC1=O (single isomer, unassigned) [Compound 2.4]
5 |  | 631 nM | 3160 nM |  | Cn1cccc1CN1CCC2(CCN(C3CCN(C(=O)c4cc(C(F)(F)F)cc(C(F)(F)F)c4)C(Cc4ccccc4)C3)CC2)OC1=O (single isomer, unassigned) [Compound 2.9]
6 | 2000 nM | 79.4 nM | 3980 nM |  | Cn1cccc1CN1CCC2(CCN(C3CCN(C(=O)c4cc(C(F)(F)F)cc(C(F)(F)F)c4)C(Cc4ccccc4)C3)CC2)OC1=O (single isomer, unassigned) [Compound 2.10]
7 | > 10000 nM | 398 nM | 1580 nM |  | O=C1OC2(CCN1Cc1cccnc1)CCN(C1CCN(C(=O)c3cc(C(F)(F)F)cc(C(F)(F)F)c3)C(Cc3ccccc3)C1)CC2 (single isomer, unassigned) [Compound 2.16]
8 | 2510 nM | 100 nM | 6310 nM |  | O=C1OC2(CCN1Cc1cccnc1)CCN(C1CCN(C(=O)c3cc(C(F)(F)F)cc(C(F)(F)F)c3)C(Cc3ccccc3)C1)CC2 (single isomer, unassigned) [Compound 2.17]
9 | 5010 nM | 10 nM | 79.4 nM |  | CC(C)(C)C(=O)N1CCC2(CC1)CCN(C1CCN(C(=O)c3cc(C(F)(F)F)cc(C(F)(F)F)c3)C(Cc3ccccc3)C1)C(=O)O2 (stereo not drawn) [Compound 1.3]
10 | 1000 nM | 12.6 nM | 126 nM |  | O=C(C1CC1)N1CCC2(CC1)CCN([C@H]1CCN(C(=O)c3cc(C(F)(F)F)cc(C(F)(F)F)c3)[C@H](Cc3ccccc3)C1)C(=O)O2 [Compound 1.4]
11 | 7940 nM | 12.6 nM | 251 nM |  | O=C(C1CCOC1)N1CCC2(CC1)CCN([C@H]1CCN(C(=O)c3cc(C(F)(F)F)cc(C(F)(F)F)c3)[C@H](Cc3ccccc3)C1)C(=O)O2 (stereo partly drawn) [Compound 1.5]
12 |  | 25.1 nM |  | 102 °C | O=C(C1CCOC1)N1CCC2(CC1)CCN(C1CCN(C(=O)c3cc(C(F)(F)F)cc(C(F)(F)F)c3)C(Cc3ccccc3)C1)C(=O)O2 (stereo not drawn) [Compound 1.6]
13 | 7940 nM | 15.8 nM | 126 nM |  | O=C(c1ccoc1)N1CCC2(CC1)CCN(C1CCN(C(=O)c3cc(C(F)(F)F)cc(C(F)(F)F)c3)C(Cc3ccccc3)C1)C(=O)O2 (stereo not drawn) [Compound 1.7]
14 |  | 25.1 nM |  | 192 °C | O=C(c1ccoc1)N1CCC2(CC1)CCN(C1CCN(C(=O)c3cc(C(F)(F)F)cc(C(F)(F)F)c3)C(Cc3ccccc3)C1)C(=O)O2 (stereo not drawn) [Compound 1.8]
15 | 6310 nM | 12.6 nM | 316 nM |  | Cc1nnsc1C(=O)N1CCC2(CC1)CCN(C1CCN(C(=O)c3cc(C(F)(F)F)cc(C(F)(F)F)c3)C(Cc3ccccc3)C1)C(=O)O2 (stereo not drawn) [Compound 1.10]
16 | > 10000 nM | 31.6 nM | 794 nM |  | O=C(c1ccccc1)N1CCC2(CC1)CCN(C1CCN(C(=O)c3cc(C(F)(F)F)cc(C(F)(F)F)c3)C(Cc3ccccc3)C1)C(=O)O2 (stereo not drawn) [Compound 1.11]
17 |  | 50.1 nM |  | 110 °C | O=C(c1ccccc1)N1CCC2(CC1)CCN(C1CCN(C(=O)c3cc(C(F)(F)F)cc(C(F)(F)F)c3)C(Cc3ccccc3)C1)C(=O)O2 (stereo not drawn) [Compound 1.12]
18 | 7940 nM | 50.1 nM | 1580 nM |  | O=C(c1cnccn1)N1CCC2(CC1)CCN(C1CCN(C(=O)c3cc(C(F)(F)F)cc(C(F)(F)F)c3)C(Cc3ccccc3)C1)C(=O)O2 (stereo not drawn) [Compound 1.13]
19 | 5010 nM | 200 nM | > 10000 nM |  | O=C1OC2(CCN1CC1CCCCC1)CCN(C1CCN(C(=O)c3cc(C(F)(F)F)cc(C(F)(F)F)c3)C(Cc3ccccc3)C1)CC2 (stereo not drawn) [Compound 2.5]
20 | > 10000 nM | 200 nM | 2510 nM |  | O=C1OC2(CCN1Cc1ccsc1)CCN(C1CCN(C(=O)c3cc(C(F)(F)F)cc(C(F)(F)F)c3)C(Cc3ccccc3)C1)CC2 (stereo not drawn) [Compound 2.6]
21 | 3980 nM | 158 nM |  |  | O=C1OC2(CCN1Cc1ccsc1)CCN(C1CCN(C(=O)c3cc(C(F)(F)F)cc(C(F)(F)F)c3)C(Cc3ccccc3)C1)CC2 (stereo not drawn) [Compound 2.7]
22 | > 10000 nM | 251 nM | 6310 nM |  | O=C1OC2(CCN1Cc1ccoc1)CCN(C1CCN(C(=O)c3cc(C(F)(F)F)cc(C(F)(F)F)c3)C(Cc3ccccc3)C1)CC2 (stereo not drawn) [Compound 2.8]
23 | > 10000 nM | 398 nM | 7940 nM |  | Cc1ccccc1CN1CCC2(CCN(C3CCN(C(=O)c4cc(C(F)(F)F)cc(C(F)(F)F)c4)C(Cc4ccccc4)C3)CC2)OC1=O (stereo not drawn) [Compound 2.11]
24 | 3980 nM | 251 nM | 5010 nM |  | Cc1ccccc1CN1CCC2(CCN(C3CCN(C(=O)c4cc(C(F)(F)F)cc(C(F)(F)F)c4)C(Cc4ccccc4)C3)CC2)OC1=O (stereo not drawn) [Compound 2.12]
25 | > 10000 nM | 316 nM | 2000 nM |  | O=C1OC2(CCN1Cc1ccc(O)cc1)CCN(C1CCN(C(=O)c3cc(C(F)(F)F)cc(C(F)(F)F)c3)C(Cc3ccccc3)C1)CC2 (stereo not drawn) [Compound 2.15]
